Results as given in paper PMC3106419 (Bioconjugate chemistry, 2009).

Target: T1, human P2Y14 receptor (Homo sapiens, UniProt Q15391)
T1 sequence (Q15391 1-338): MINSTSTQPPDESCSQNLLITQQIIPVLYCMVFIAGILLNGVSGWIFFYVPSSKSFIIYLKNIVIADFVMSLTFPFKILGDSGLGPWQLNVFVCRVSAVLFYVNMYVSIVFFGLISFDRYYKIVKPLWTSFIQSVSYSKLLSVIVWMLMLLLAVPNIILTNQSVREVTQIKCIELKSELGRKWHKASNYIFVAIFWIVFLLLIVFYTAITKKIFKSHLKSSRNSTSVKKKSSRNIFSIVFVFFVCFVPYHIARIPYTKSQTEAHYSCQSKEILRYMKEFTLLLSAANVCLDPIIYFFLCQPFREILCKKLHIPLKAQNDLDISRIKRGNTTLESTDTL
Test: Inhibition of forskolin-stimulated cyclic AMP accumulation in P2Y14-HEK293 cells
Type: cell-based
Settings: for fold more potent than monomer 3a: potency ratio vs ethylenediamine analogue 3a at hP2Y14 receptor; for relative potency at the P2Y14 receptor: comparator named in the value; for fold more potent than native agonist UDPG 1: potency ratio vs compound 1 at hP2Y14 receptor

Row | Molecule | relative potency at the P2Y14 receptor | further results
1 | G2.5-(UDPGA-ethylenediamine)17.3 [compound 10] | – | fold more potent than monomer 3a: more than 800 fold
2 | G6-(UDPGA)147 [compound 12] | significantly more potent than 9 | –
3 | G3-(UDPGA)20.1-(AlexaFluor488)2.3 [compound 14] | – | fold more potent than native agonist UDPG 1: 7 fold; fold less potent than conjugate 9 (potency ratio vs compound 9 at hP2Y14 receptor): 17 fold
4 | G3-(UDPGA)20.1 [compound 9] | – | fold more potent than native agonist UDPG 1: approximately 100 fold
5 | UDPGA-ethylenediamine [3a] | considerably less potent | –
6 | O=C(O)[C@H]1O[C@H](OP(=O)(O)OP(=O)(O)OC[C@H]2O[C@@H](n3ccc(=O)[nH]c3=O)[C@H](O)[C@@H]2O)[C@H](O)[C@@H](O)[C@@H]1O [compound 2, uridine-5′-diphosphoglucuronic acid, reference compound] | approximately equipotent to 1 | –
7 | G3-(UDPGA)4.3 [compound 8] | considerably less potent than 9, but similar in potency to 1 | –
8 | G3-(UDPGA)20.1-(Biotin)4.9 [compound 13] | essentially as potent as 9 | –
9 | G3-(UDPGA)20.1-(DTPA)4.5 [compound 15] | essentially as potent as 9 | –
10 | G5.5-(UDPGA-ethylenediamine)29.9 [compound 11] | – | fold more potent than monomer 3a: more than 800 fold
